Assays:
Format in all cases: in vivo
Details in all cases: 250 g/h, evaluated after 13 days
Avena fatua (AVEFA) [1] = test: Glasshouse herbicide test, pre-emergence application
Protocol: (§1) Seeds of a variety of test species are sown in standard soil in pots (Lolium perenne (LOLPE), Setaria faberi (SETFA), Echinochloa crus-galli (ECHCG), Avena fatua (AVEFA)). After cultivation for one day (pre-emergence) or after 8 days cultivation (post-emergence) under controlled conditions in a glasshouse (at 24/16° C., day/night; 14 hours light; 65% humidity), the plants are sprayed with an aqueous spray solution derived from the formulation of the technical active ingredient in acetone/water (50:50) solution containing 0.5% Tween 20 (polyoxyethelyene sorbitan monolaurate, CAS RN 9005-64-5). Compounds are applied at 250 g/h. The test plants are then grown in a glasshouse under controlled conditions in a glasshouse (at 24/16° C., day/night; 14 hours light; 65% humidity) and watered twice daily. After 13 days for pre and post-emergence, the test is evaluated for the percentage damage caused to the plant. The biological activities are shown in the following table on a five point scale (5=80-100%; 4=60-79%; 3=40-59%; 2=20-39%; 1=0-19%).

[2] = test system: Echinochloa crus-galli (ECHCG); test: as above
Protocol: as §1

Lolium perenne (LOLPE) [3] = test: as above
Protocol: as §1

Setaria faberi (SETFA) [4] = test: as above
Protocol: as §1

Avena fatua (AVEFA) [5] = test: Glasshouse herbicide test, post-emergence application
Protocol: as §1

[6] = test system: Echinochloa crus-galli (ECHCG); test: as above
Protocol: as §1

Lolium perenne (LOLPE) [7] = test: as above
Protocol: as §1

Setaria faberi (SETFA) [8] = test: as above
Protocol: as §1

Row | SMILES | percentage damage caused to the plant, five point scale, AVEFA (Avena fatua (AVEFA) [1]) | percentage damage caused to the plant, five point scale, ECHCG [2] | percentage damage caused to the plant, five point scale, LOLPE (Lolium perenne (LOLPE) [3]) | percentage damage caused to the plant, five point scale, SETFA (Setaria faberi (SETFA) [4]) | percentage damage caused to the plant, five point scale, AVEFA (Avena fatua (AVEFA) [5]) | percentage damage caused to the plant, five point scale, ECHCG [6] | percentage damage caused to the plant, five point scale, LOLPE (Lolium perenne (LOLPE) [7]) | percentage damage caused to the plant, five point scale, SETFA (Setaria faberi (SETFA) [8])
1 | CC#Cc1cc(C)c(C2C(=O)CC3(CC2=O)CN(S(=O)(=O)CC)C3)c(OC)c1 [Compound 1.014] | 5 (5=80-100%) | 5 (5=80-100%) | 5 (5=80-100%) | 5 (5=80-100%) | 5 (5=80-100%) | 5 (5=80-100%) | 5 (5=80-100%) | 5 (5=80-100%)
2 | CC#Cc1cc(C)c(C2C(=O)CC3(CC2=O)CN(C(=O)c2ccccc2)C3)c(OC)c1 [Compound 1.015] | 5 (5=80-100%) | 5 (5=80-100%) | 5 (5=80-100%) | 5 (5=80-100%) | 5 (5=80-100%) | 5 (5=80-100%) | 5 (5=80-100%) | 5 (5=80-100%)
3 | CC#Cc1cc(C)c(C2C(=O)CC3(CC2=O)CN(C(=O)c2ccccn2)C3)c(OC)c1 [Compound 1.016] | 5 (5=80-100%) | 5 (5=80-100%) | 5 (5=80-100%) | 5 (5=80-100%) | 5 (5=80-100%) | 5 (5=80-100%) | 5 (5=80-100%) | 5 (5=80-100%)
4 | CC#Cc1cc(C)c(C2C(=O)CC3(CC2=O)CN(C(=O)COC)C3)c(OC)c1 [Compound 1.017] | 5 (5=80-100%) | 5 (5=80-100%) | 5 (5=80-100%) | 5 (5=80-100%) | 5 (5=80-100%) | 4 (4=60-79%) | 5 (5=80-100%) | 5 (5=80-100%)
5 | CC#Cc1cc(C)c(C2C(=O)CC3(CC2=O)CN(C(=O)NC(C)(C)C)C3)c(OC)c1 [Compound 1.018] | 5 (5=80-100%) | 5 (5=80-100%) | 5 (5=80-100%) | 5 (5=80-100%) | 5 (5=80-100%) | 5 (5=80-100%) | 5 (5=80-100%) | 5 (5=80-100%)
6 | CC#Cc1cc(C)c(C2C(=O)CC3(CC2=O)CN(C(=O)NC(=O)C(C)(C)C)C3)c(OC)c1 [Compound 1.019] | 4 (4=60-79%) | 5 (5=80-100%) | 4 (4=60-79%) | 4 (4=60-79%) | 5 (5=80-100%) | 4 (4=60-79%) | 5 (5=80-100%) | 5 (5=80-100%)
7 | CC#Cc1cc(C)c(C2C(=O)CC3(CC2=O)CN(C(=O)C2CC2)C3)c(OC)c1 [Compound 1.020] | 5 (5=80-100%) | 5 (5=80-100%) | 5 (5=80-100%) | 5 (5=80-100%) | 5 (5=80-100%) | 5 (5=80-100%) | 5 (5=80-100%) | 5 (5=80-100%)
8 | CC#Cc1cc(C)c(C2C(=O)CC3(CC2=O)CN(C(=O)C(C)(C)C)C3)c(OC)c1 [Compound 1.021] | 5 (5=80-100%) | 5 (5=80-100%) | 5 (5=80-100%) | 5 (5=80-100%) | 5 (5=80-100%) | 5 (5=80-100%) | 5 (5=80-100%) | 5 (5=80-100%)
9 | CC#Cc1cc(C)c(C2C(=O)CC3(CC2=O)CN(C(=O)NC(=O)c2ccccn2)C3)c(OC)c1 [Compound 1.022] | 2 (2=20-39%) | 4 (4=60-79%) | 3 (3=40-59%) | 5 (5=80-100%) | 5 (5=80-100%) | 5 (5=80-100%) | 5 (5=80-100%) | 5 (5=80-100%)
10 | CC#Cc1cc(C)c(C2C(=O)CC3(CC2=O)CN(C(=O)CC#N)C3)c(OC)c1 [Compound 1.023] | 2 (2=20-39%) | 1 (1=0-19%) | 3 (3=40-59%) | 3 (3=40-59%) | 5 (5=80-100%) | 5 (5=80-100%) | 5 (5=80-100%) | 5 (5=80-100%)
11 | CC#Cc1cc(C)c(C2C(=O)CC3(CC2=O)CN(C(=O)C(F)F)C3)c(OC)c1 [Compound 1.024] | 5 (5=80-100%) | 5 (5=80-100%) | 5 (5=80-100%) | 5 (5=80-100%) | 5 (5=80-100%) | 5 (5=80-100%) | 5 (5=80-100%) | 5 (5=80-100%)
12 | CC#Cc1cc(Cl)c(C2C(=O)CC3(CC2=O)CN(C(=O)C(F)F)C3)c(OC)c1 [Compound 1.193] | 5 (5=80-100%) | 5 (5=80-100%) | 5 (5=80-100%) | 5 (5=80-100%) | 5 (5=80-100%) | 5 (5=80-100%) | 5 (5=80-100%) | 5 (5=80-100%)
13 | CC#Cc1cc(Cl)c(C2C(=O)CC3(CC2=O)CN(C(C)=O)C3)c(OC)c1 [Compound 1.195] | 5 (5=80-100%) | 5 (5=80-100%) | 5 (5=80-100%) | 5 (5=80-100%) | 5 (5=80-100%) | 5 (5=80-100%) | 5 (5=80-100%) | 5 (5=80-100%)
14 | CC#Cc1cc(Cl)c(C2C(=O)CC3(CC2=O)CN(C(=O)C2CC2)C3)c(OC)c1 [Compound 1.196] | 5 (5=80-100%) | 5 (5=80-100%) | 5 (5=80-100%) | 5 (5=80-100%) | 5 (5=80-100%) | 5 (5=80-100%) | 5 (5=80-100%) | 5 (5=80-100%)
15 | CC#Cc1cc(Cl)c(C2C(=O)CC3(CC2=O)CN(C(=O)c2ccccc2)C3)c(OC)c1 [Compound 1.201] | 5 (5=80-100%) | 5 (5=80-100%) | 5 (5=80-100%) | 5 (5=80-100%) | 5 (5=80-100%) | 5 (5=80-100%) | 5 (5=80-100%) | 5 (5=80-100%)

Source: US12398101B2, “Herbicidal 2-azaspiro[3-5]nonane compounds” (SYNGENTA CROP PROTECTION AG, priority 2018, dated 2025)
